Results published in publication PMC7038073, “Substituted Piperazines as Novel Potential Radioprotective Agents” (Molecules, 2020).
Counter-ions that a name gives are not always drawn.

Columns and labels:
[1] = WST-1 cytotoxicity test, MRC-5; type: cell-based; settings: human, MRC-5 cells, 48 h, WST-1, mean ± SD of three experiments, read-out: relative viability (%) compared to untreated control; for viability at 48 h, 10 µM: MRC-5, 10 µM; for viability at 48 h, 100 µM: MRC-5, 100 µM
Description: (§1) In this study, the cytotoxic effects of nine new compounds (2, 3, 4, 5, 6, 7, 8, 9, 10) were tested on 10 human cell lines (nine cancer and one non-cancer cell line). The cell lines were treated with each compound at concentrations of 10 µM and 100 µM for 48 h. The proliferation capacity of the treated cells was determined by WST-1 test and compared against the proliferation rate of the untreated control cells (100%).
(§2) The cell lines Jurkat, MOLT-4, A2780, A549, HT-29, PANC-1, HeLa, MCF-7, SAOS-2, and MRC-5 (all purchased from Sigma Aldrich, Czech Republic) were included in this study. All cell lines were maintained according to the provider’s guidelines, and plated and treated in 96-well plates (500 to 30 × 10^3 cells per well). The tested compounds 2, 3, 4, 5, 6, 7, 8, 9, and 10 were dissolved in 0.1% DMSO and kept in 10 mM stock solutions. Before use, the stock solution was diluted in culture media at ratios of 1:100 and 1:1000. The studied cell lines were treated with the compounds 2, 3, 4, 5, 6, 7, 8, 9, and 10 at concentrations of 10 and 100 µM for 48 h. Control cells were tested in culture media with and without DMSO (0.1%). The cells were also treated with 1 µM doxorubicin as a cytotoxicity control.
(§3) The WST-1 (2-(4-iodophenyl)-3-(4-nitrophenyl)-5-(2,4-disulfophenyl)-2H-tetrazolium, monosodium salt) test (Roche, Mannheim, Germany) was used according to the manufacturer’s protocol to determine cell viability in all 10 cell lines 48 h after treatment with the tested compounds. The cells were analyzed in a Tecan Infinite M200 spectrometer (Tecan Group, Männedorf, Switzerland) at 440 nm.

[2] = WST-1 cytotoxicity test, A2780; type: cell-based; settings: human, A2780 cells, 48 h, WST-1, mean ± SD of three experiments, read-out: relative viability (%) compared to untreated control; for viability at 48 h, 10 µM: A2780, 10 µM; for viability at 48 h, 100 µM: A2780, 100 µM
Description: as §1, §2, §3

[3] = WST-1 cytotoxicity test, PANC-1; type: cell-based; settings: human, PANC-1 cells, 48 h, WST-1, mean ± SD of three experiments, read-out: relative viability (%) compared to untreated control; for viability at 48 h, 10 µM: PANC-1, 10 µM; for viability at 48 h, 100 µM: PANC-1, 100 µM
Description: as §1, §2, §3

[4] = WST-1 cytotoxicity test, HT-29; type: cell-based; settings: human, HT-29 cells, 48 h, WST-1, mean ± SD of three experiments, read-out: relative viability (%) compared to untreated control; for viability at 48 h, 10 µM: HT-29, 10 µM; for viability at 48 h, 100 µM: HT-29, 100 µM
Description: as §1, §2, §3

[5] = WST-1 cytotoxicity test, HeLa; type: cell-based; settings: human, HeLa cells, 48 h, WST-1, mean ± SD of three experiments, read-out: relative viability (%) compared to untreated control
Description: as §1, §2, §3

[6] = WST-1 cytotoxicity test, Jurkat; type: cell-based; settings: human, Jurkat cells, 48 h, WST-1, mean ± SD of three experiments, read-out: relative viability (%) compared to untreated control
Description: as §1, §2, §3

[7] = WST-1 cytotoxicity test, MOLT-4; type: cell-based; settings: human, MOLT-4 cells, 48 h, WST-1, mean ± SD of three experiments, read-out: relative viability (%) compared to untreated control; for viability at 48 h, 10 µM: MOLT-4, 10 µM; for viability at 48 h, 100 µM: MOLT-4, 100 µM
Description: as §1, §2, §3

BALB/c mice = experiment: Survival of whole-body irradiated mice; type: in vivo; settings: female BALB/c mice; for day post-irradiation of onset of lethal effect / decline in survival: i.p. at 50% of MTD 5 min before 7.15 Gy, non-treated control 10 days; for survival at day 30 post-irradiation: n = 10, i.p. at 50% of MTD 5 min before 7.15 Gy, control 40%
Description: To estimate the radioprotective effect on whole-body irradiated mice, compounds 4 (50 mg/kg), 5 (100 mg/kg), 6 (50 mg/kg), 7 (100 mg/kg), 8 (1000 mg/kg), and 10 (325 mg/kg) were injected (intraperitoneally, i.p.) 5 min before receiving 7.15 Gy of gamma radiation. These compounds were selected based on the cytotoxicity screening in vitro, and applied at a dose corresponding to 50% of the MTD in vivo. […] The follow-up period was 30 days.
Adult female BALB/c mice (21 ± 0.8 g) were used for all experiments (Velaz a.s., Prague, Czech Rep.). All the performed methods were in accordance with NIRS Guidelines for the Care and Use of Laboratory Animals and approved by the Committee for animal rights of the Ministry of Defence of the Czech Republic no. ČJ MO 255172/2019-684800. The mice, arranged in groups of 10 animals each, received a dose of 7.15 Gy from a ^60Co gamma source (Chisotron, Chirana, Czech Republic) at a dose rate of 1.04 Gy/min. Non-irradiated and non-treated control groups were included. Their survival and health status were checked on a daily basis for 30 days.
Compounds 4 (50 mg/kg), 5 (100 mg/kg), 6 (50 mg/kg), 7 (100 mg/kg), 8 (1000 mg/kg), and 10 (325 mg/kg) were selected and administered i.p. 5 min before irradiation. The doses were prepared from 100 mg/mL stock before each experiment.

Row | Structure (SMILES) | viability at 48 h, 10 µM [1] [%] | viability at 48 h, 100 µM [1] [%] | viability at 48 h, 10 µM [2] [%] | viability at 48 h, 100 µM [2] [%] | viability at 48 h, 10 µM [3] [%] | viability at 48 h, 100 µM [3] [%] | viability at 48 h, 10 µM [4] [%] | viability at 48 h, 100 µM [4] [%] | viability at 48 h, 10 µM [5] [%] | viability at 48 h, 100 µM [5] [%] | viability at 48 h, 10 µM [6] [%] | viability at 48 h, 100 µM [6] [%] | viability at 48 h, 10 µM [7] [%] | viability at 48 h, 100 µM [7] [%] | day post-irradiation of onset of lethal effect / decline in survival (BALB/c mice) [days] | survival at day 30 post-irradiation (BALB/c mice) [%]
1 | Cc1cc(OCC(O)CN2CCN(CCO)CC2)ccc1Cl.Cl.Cl (centres unmarked) [Compound 4, 1-(4-chloro-3-methylphenoxy)-3-(4-(2-hydroxyethyl)piperazin-1-yl)propan-2-ol dihydrochloride] | 97 ± 8 | 93 ± 5 | 98 ± 2 | 89 ± 1 | 97 ± 7 | 111 ± 24 | 100 ± 2 | 83 ± 4 | 106 ± 2 | 137 ± 5 | 105 ± 5 | 89 ± 1 | 88 ± 6 | 92 ± 6 | > 12 | 50
2 | Cl.Cl.Cl.OCCN1CCN(CCCNc2ccccc2)CC1 [Compound 5, 2-(4-(3-(phenylamino)propyl)piperazin-1-yl)ethanol trihydrochloride] | 98 ± 7 | 102 ± 8 | 93 ± 5 | 105 ± 8 | 86 ± 16 | 115 ± 7 | 91 ± 2 | 109 ± 2 | 100 ± 4 | 116 ± 10 | 98 ± 4 | 98 ± 3 | 93 ± 9 | 104 ± 7 | 10 | 30
3 | Cl.Cl.Cl.OCCN1CCN(CCCNc2cccc3ccccc23)CC1 [Compound 6, 2-(4-(3-(naphthalen-1-ylamino)propyl)piperazin-1-yl)ethanol trihydrochloride] | 91 ± 4 | 94 ± 2 | 74 ± 3 | 95 ± 4 | 92 ± 11 | 111 ± 5 | 86 ± 4 | 97 ± 4 | 108 ± 6 | 104 ± 7 | 101 ± 1 | 93 ± 2 | 90 ± 7 | 112 ± 4 | 10 | 20
4 | COc1ccc(NCCCN2CCN(CCO)CC2)cc1.Cl.Cl.Cl [Compound 7, 2-(4-(3-((4-methoxyphenyl)amino)propyl)piperazin-1-yl)ethanol trihydrochloride] | 100 ± 3 | 104 ± 3 | 94 ± 3 | 91 ± 2 | 99 ± 10 | 116 ± 3 | 96 ± 3 | 118 ± 2 | 96 ± 8 | 132 ± 3 | 100 ± 5 | 96 | 93 ± 3 | 99 ± 3 | 9 | 0
5 | OCCN1CCN(CC(O)CN2CCN(CCO)CC2)CC1 [Compound 8, 1.3-bis [4-(2-hydroxyethyl)piperazin-1-yl)propan-2-ol tetrahydrochloride] | 95 ± 7 | 119 ± 16 | 104 ± 4 | 76 ± 10 | 98 ± 9 | 117 ± 11 | 101 ± 1 | 154 ± 11 | 103 ± 4 | 100 ± 18 | 103 ± 5 | 96 ± 13 | 106 ± 8 | 81 ± 6 | > 12 | 70
6 | Cl.Cl.OC(CNc1ccccc1)CNc1ccccc1 [Compound 9, 1,3-bis(phenylamino)propan-2-ol dihydrochloride] | 102 ± 8 | 120 ± 16 | 90 ± 3 | 64 ± 5 | 93 ± 12 | 118 ± 5 | 102 ± 5 | 148 ± 2 | 99 ± 9 | 90 ± 14 | 104 ± 5 | 79 ± 11 | 103 ± 8 | 71 ± 4 | – | –
7 | Cl.Cl.Cl.OCCN1CCN(CC(O)CNc2ccccc2)CC1 (centres unmarked) [Compound 10, 1-(phenylamino]-3-[4-(2-hydroxyethyl)piperazin-1-yl)propan-2-ol trihydrochloride] | 102 ± 3 | 102 ± 8 | 103 ± 6 | 96 ± 2 | 95 ± 7 | 111 ± 6 | 104 ± 11 | 113 ± 2 | 110 ± 7 | 121 ± 3 | 108 ± 7 | 95 ± 4 | 112 ± 6 | 100 ± 4 | > 12 | 30
